Results reported in publication PMC8956313, “Biological investigation of N-methyl thiosemicarbazones as antimicrobial agents and bacterial carbonic anhydrases inhibitors” (Journal of Enzyme Inhibition and Medicinal Chemistry, 2022).

How the values were obtained:
Assay in all cases: stopped-flow CO2 hydrase assay
Format in all cases: biochemical
hCA I = biological target: T1, hCA I (Homo sapiens, UniProt P00915)
T1 construct: gene CA1; recombinant, obtained in house

hCA II = biological target: T2, hCA II (Homo sapiens, UniProt P00918)
T2 construct: gene CA2; recombinant, obtained in house

EcoγCA = biological target: T3, EcoγCA (Escherichia coli, UniProt P0A9W9)
T3 construct: gene yrdA; recombinant, expressed in E. coli (DE3), purified
T3 sequence (P0A9W9 1-184): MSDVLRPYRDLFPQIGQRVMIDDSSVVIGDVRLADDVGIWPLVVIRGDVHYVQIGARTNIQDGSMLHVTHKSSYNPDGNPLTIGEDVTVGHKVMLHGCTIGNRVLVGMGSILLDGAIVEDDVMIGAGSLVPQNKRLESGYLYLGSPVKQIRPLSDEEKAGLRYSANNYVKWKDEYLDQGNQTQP

psCA3-β = biological target: T4, psCA3-β (Pseudomonas aeruginosa, UniProt Q9HVB9)
T4 construct: gene PA4676; recombinant, expressed in E. coli (DE3), purified
T4 sequence (Q9HVB9 1-215): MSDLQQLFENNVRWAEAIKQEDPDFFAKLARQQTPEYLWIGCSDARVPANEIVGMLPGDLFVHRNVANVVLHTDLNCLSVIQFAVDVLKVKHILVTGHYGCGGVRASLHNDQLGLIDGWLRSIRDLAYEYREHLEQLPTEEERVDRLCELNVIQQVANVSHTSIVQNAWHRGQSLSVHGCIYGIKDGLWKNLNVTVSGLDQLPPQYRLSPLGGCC

HpβCA = biological target: T5, HpβCA (Helicobacter pylori, UniProt O24855)
T5 construct: gene cynT; recombinant, expressed in E. coli (DE3), purified
T5 sequence (O24855 1-221): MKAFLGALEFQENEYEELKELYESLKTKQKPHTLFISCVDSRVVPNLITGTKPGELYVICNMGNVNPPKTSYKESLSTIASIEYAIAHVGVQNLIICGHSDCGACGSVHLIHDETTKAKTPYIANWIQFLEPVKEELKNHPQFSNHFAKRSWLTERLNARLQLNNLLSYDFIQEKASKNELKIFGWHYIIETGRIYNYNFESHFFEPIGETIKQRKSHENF

HpαCA = biological target: T6, HpαCA (Helicobacter pylori, UniProt O25798); settings: HEPES pH 7.40, 20 mM Na2SO4, 15 min preincubation, room temperature
T6 construct: gene HP_1186; recombinant, expressed in E. coli (DE3), purified
T6 sequence (O25798 19-202): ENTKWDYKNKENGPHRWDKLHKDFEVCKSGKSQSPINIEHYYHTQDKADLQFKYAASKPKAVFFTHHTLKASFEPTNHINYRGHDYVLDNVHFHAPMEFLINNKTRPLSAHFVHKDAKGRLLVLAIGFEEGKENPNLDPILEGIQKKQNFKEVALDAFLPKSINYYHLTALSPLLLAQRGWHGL

EcoβCA = biological target: T7, EcoβCA (Escherichia coli, UniProt P61517)
T7 construct: gene can; recombinant, expressed in E. coli (DE3), purified
T7 sequence (P61517 whole entry): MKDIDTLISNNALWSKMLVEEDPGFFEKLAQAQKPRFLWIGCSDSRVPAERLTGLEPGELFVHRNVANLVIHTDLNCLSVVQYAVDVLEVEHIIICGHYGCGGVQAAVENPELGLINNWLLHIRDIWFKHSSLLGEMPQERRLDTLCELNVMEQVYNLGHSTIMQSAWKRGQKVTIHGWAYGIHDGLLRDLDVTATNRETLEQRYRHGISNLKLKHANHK

T1 sequence (P00915 2-261): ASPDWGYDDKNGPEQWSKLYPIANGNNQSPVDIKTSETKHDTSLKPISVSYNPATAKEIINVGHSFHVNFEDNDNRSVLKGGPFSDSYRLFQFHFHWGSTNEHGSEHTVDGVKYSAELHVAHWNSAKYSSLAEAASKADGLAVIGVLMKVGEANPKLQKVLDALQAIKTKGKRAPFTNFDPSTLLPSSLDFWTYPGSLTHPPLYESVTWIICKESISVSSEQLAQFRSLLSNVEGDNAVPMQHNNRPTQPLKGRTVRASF

Row | Ki (hCA I) [µM] | SMILES | Ki (hCA II) [µM] | Ki (EcoγCA) [µM] | Ki (psCA3-β) [µM] | further results
1 | > 1000 | CNC(=S)NN=C(C)c1ccc(-n2ccnc2)cc1 [compound 4, TSC 4] | – | – | – | –
2 | – | CNC(=S)NN=C(C)c1ccc(Br)s1 [compound 9, TSC 9] | > 800 | 83.2 | 86.7 | –
3 | – | CNC(=S)NN=C(C)c1ccc(-c2cc3ccccc3[nH]2)cc1 [compound 5, TSC 5] | – | – | – | Ki (HpβCA): 348 µM; Ki (HpαCA): 95.2 µM
4 | – | CNC(=S)NN=C(C)c1ccc(OC)cc1 [compound 1, TSC 1] | > 800 | 86.2 | 92.1 | –
5 | – | CNC(=S)NN=C(C)c1ccc(N2CCOCC2)cc1 [compound 3, TSC 3] | > 800 | – | – | Ki (EcoβCA): 91.5 µM
6 | > 1000 | CNC(=S)NN=C(C)c1ccc2c(c1)OCO2 [compound 6, TSC 6] | – | – | – | –
7 | – | CNC(=S)NN=C(C)c1ccc(S(C)(=O)=O)cc1 [compound 2, TSC 2] | > 800 | 80 | 93.4 | –

Row | SMILES | Ki (hCA I) [µM] | Ki (hCA II) [µM] | Ki (EcoγCA) [µM] | Ki (psCA3-β) [µM] | further results
8 | CNC(=S)NN=C(C)c1ccc2c(c1)OCCO2 [compound 7, TSC 7] | > 1000 | – | – | – | Ki (EcoβCA): 96.5 µM
